Measurements from US5318970A, “Isoxazole compounds, pharmaceutically acceptable salts thereof and medical uses thereof” (Taiho Pharmaceutical Co., Ltd., priority 1990, dated 1994).

How the values were obtained:
5-Lipoxygenase = target: T1, 5-Lipoxygenase (Cavia porcellus, UniProt A0A286X958); assay: 5-Lipoxygenase inhibitory effect (14C-arachidonic acid to 5-hydroxyeicosatetraenoic acid, cytosol of polymorphonuclear leukocytes); assay type: biochemical; conditions: guinea pig polymorphonuclear leukocyte cytosol; 5-hydroxyeicosatetraenoic acid by thin layer chromatography
T1 construct: the polymorphonuclear leukocytes were collected and the cytosol fraction was obtained as an enzyme source; endogenous in cells; host or cells: guinea pig peritoneal polymorphonuclear leukocytes (casein-elicited), cytosol fraction
T1 sequence (A0A286X958 1-674): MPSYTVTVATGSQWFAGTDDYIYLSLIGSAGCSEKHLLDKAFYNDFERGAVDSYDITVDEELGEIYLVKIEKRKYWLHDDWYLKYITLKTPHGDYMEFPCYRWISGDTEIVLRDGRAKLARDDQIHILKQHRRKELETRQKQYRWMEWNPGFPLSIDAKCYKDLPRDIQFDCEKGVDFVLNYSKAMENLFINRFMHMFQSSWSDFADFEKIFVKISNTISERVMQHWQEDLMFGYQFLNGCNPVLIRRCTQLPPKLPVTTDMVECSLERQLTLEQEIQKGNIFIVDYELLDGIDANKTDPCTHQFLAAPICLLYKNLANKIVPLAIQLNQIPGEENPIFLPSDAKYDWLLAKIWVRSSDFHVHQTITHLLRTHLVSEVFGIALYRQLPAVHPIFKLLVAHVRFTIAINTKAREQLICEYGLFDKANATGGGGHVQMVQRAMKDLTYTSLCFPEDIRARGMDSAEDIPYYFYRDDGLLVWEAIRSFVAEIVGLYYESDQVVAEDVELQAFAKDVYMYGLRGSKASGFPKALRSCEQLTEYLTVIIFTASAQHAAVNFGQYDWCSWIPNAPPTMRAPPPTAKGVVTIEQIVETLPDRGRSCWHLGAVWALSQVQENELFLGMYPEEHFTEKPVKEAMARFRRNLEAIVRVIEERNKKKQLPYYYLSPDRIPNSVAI
Method: (2) 5-Lipoxygenase inhibitory effect
The assay was carried out by the method described in Kenkichi Ochi et al., J. Biol. Chem., 258, 5754-5758 (1983).
Casein was injected into the abdominal cavity of a guinea pig, and the polymorphonuclear leukocytes were collected and the cytosol fraction was obtained as an enzyme source. ^14 C-arachidonic acid was reacted with the enzyme and the test drugs at various concentrations over a predetermined period of time. The obtained 5-hydroxyeicosatetraenoic acid was separated by thin layer chromatography and the radioactivity was determined. The IC50 values were calculated by the comparison with the radioactivity of the control.

Cyclooxygenase = Cyclooxygenase inhibitory effect (14C-arachidonic acid to prostaglandin E2, seminal vesicular gland microsomes); assay type: biochemical; conditions: prostaglandin E2 by thin layer chromatography
Method: (1) Cyclooxygenase Inhibitory effect
This assay was carried out by the method described in Russell J. Taylor et al., Biochem. Pharmacol., 25, 2479-2484 (1976).
^14 C-arachidonic acid was reacted with seminal vesicular gland microsomes and the test drugs at various concentrations over a predetermined period of time and the obtained prostaglandin E2 was separated by thin layer chromatography. The radioactivity of prostaglandin E2 was determined by liquid scintillation counter. The IC50 values were calculated by the comparison with the radioactivity of the control.

IC50 (5-Lipoxygenase) [µM]	IC50 (Cyclooxygenase) [µM]	Compound
1.8	0.121	COc1ccc(-c2noc(CC(=O)NCCN3CCN(CCCCCCCCCCO)CC3)c2-c2ccc(OC)cc2)cc1 [Compound 6]
2.5	0.146	COc1ccc(-c2noc(CC(=O)NC(CN3CCN(CCCCCCCCCCO)CC3)c3ccccc3)c2-c2ccc(OC)cc2)cc1 (stereo not drawn) [Compound 7]
5.9	0.066	CCCCCCCCCCN1CCN(C(=O)CNC(=O)Cc2onc(-c3ccc(OC)cc3)c2-c2ccc(OC)cc2)CC1 [Compound 8]
